Patent US4892883A, “Pharmaceutical compositions containing bilobalide for the treatment of neuropathies Ai” (Willman - Schwabe GmbH & Co., priority 1973, dated 1990)

What was measured:
[1] = system: male Sprague-Dawley rats given triethyltin chloride (brain water and electrolyte contents); test: Protective effect against triethyltin chloride (TET) intoxication (Experiment 1, Table I); format: in vivo, rat (Sprague-Dawley); details: for Brain % water / Brain K^+ / Brain Na^+ / Brain Na^+ /K^+ / Mean body weight, 14 days / Mean body weight, initial: TET 0.002%
Experimental: Male Sprague-Dawley rats (200-300 g body weight) are offered an aqueous solution containing 0.002 per cent triethyltin chloride (abbreviated to TET) as drinking liquid for 14 days. Control animals received water. The Gingko biloba monoextract (EGB) with or without bilobalide and the various test substances are administered orally 1×daily throughout these 14 days. On day 15, the animals are sacrificed, the brain is removed and its water and electrolyte contents are determined. The body weight of the animals during the experiment is checked daily.

[2] = system: male Sprague-Dawley rats given hexachlorophene (brain water and electrolyte contents); test: Protective effect against hexachlorophene intoxication (Experiment 2, Table II); format: in vivo, rat (Sprague-Dawley); details: hexachlorophene i.p.
Experimental: In another experiment, male Sprague-Dawley rats (200-250 g body weight) receive intraperitoneal injections of 20 mg/kg hexachlorophene (suspended in 0.2% agar) for 2 days and only 10 mg/kg on the 3rd day. The test substances are administered orally after administration of hexachlorophene.
The control animals receive only 0.2% agar i.p. or tap water orally. On the 4th day, the animals are sacrificed and the water and electrolyte contents in the brain are determined. The body weight of the animals is measured daily throughout the 4 days.

[3] = system: neuropathy on the triethyltin chloride model; test: Protective action against TET-induced neuropathy, hotplate test (Experiment 4, Table III); format: in vivo, rat (Sprague-Dawley); details: TET 0.002%
Experimental: The investigations of the protective action against damage to myelin and its expression as neuropathy is likewise carried out on the triethyltin chloride model. When the animals are treated not for 14 days but for only 6 days with a 0.002 per cent TET solution administered in place of the drinking water, they show various signs of neuropathy although no cerebral oedema is detectable in this period. The neuropathy is quantified by measuring the consumption of food and water and by the changes in body weight. In addition, as a specific parameter, the pain reaction time in a hotplate test (at 50° C.) is measured (J. Pharm. Pharmacol., 9 (1957), 381).

[4] = system: neuropathy on the triethyltin chloride model; test: Curative action on TET-induced neuropathy, hotplate test (Experiment 5, Table IV); format: in vivo, rat (Sprague-Dawley); details: for Body weight after intoxication / Food consumption after intoxication / Hotplate reaction time after intoxication / Water consumption after intoxication: after 6 days TET, before treatment
Experimental: In a similar manner, the curative action of bilobalid or extract containing bilobalide is investigated. The animals are offered a 0.002 per cent TET solution in place of drinking water for 6 days. Subsequently (from the 7th day), the TET solution is replaced by tap water and, simultaneously, the daily oral treatment is started. Treatment is continued for 6 days. The measured parameters (body weight, consumption of food and water, hotplate reaction time) are determined on the 6th day before the treatment and on the 14th day after the treatment.

[5] = system: cholinergic mechanisms of the central nervous system; test: Stimulating effect on cholinergic mechanisms of the central nervous system; details: in vivo
Experimental: The stimulating effects of the extract on the cholinergic system of the central nervous system were determined in various experiments. In one of these experiments the influence of the extract on the spontaneous climbing behaviour (SCB) was examined according to the method described by Marcais et al. (Psychopharmacology; 56, 233-234, 1978).

[6] = system: existent neuropathies, neurological and mental functions; test: Clinical investigations; format: in vivo
[7] = system: neuropathy on the triethyltin chloride model; test: Protective action against TET-induced neuropathy, hotplate test (Experiment 4, Table III); format: in vivo, rat (Sprague-Dawley); details: overall conclusion of Experiments 1 to 5
[8] = system: Monilia fructicola; details: cited from earlier work
[9] = system: Penicillium glaucum; details: cited from earlier work
[10] = system: Escherichia coli; details: cited from earlier work
[11] = system: mouse ear; details: cited from earlier work
[12] = 5 mg/kg p.o. daily 6 days after TET
[13] = 10 mg/kg p.o. daily 6 days after TET

CC(C)(C)C1(O)CC2OC(=O)CC23C(=O)OC2OC(=O)C(O)C231 (centres unmarked) [Bilobalide, bilobalide]
Brain % water ([1]; 5 mg/kg p.o. 1×daily 14 days): 78.57 ± 0.19% | Brain K^+ ([1]; 5 mg/kg p.o. 1×daily 14 days): 418.9 ± 14.4 mmol/kg dry weight | Brain Na^+ ([1]; 5 mg/kg p.o. 1×daily 14 days): 162.6 ± 5.4 mmol/kg dry weight | Brain Na^+ /K^+ ([1]; 5 mg/kg p.o. 1×daily 14 days): 0.39 ± 0.020 | Mean body weight, 14 days ([1]; 5 mg/kg p.o. 1×daily 14 days): 323 g | Mean body weight, initial ([1]; 5 mg/kg p.o. 1×daily): 288 g | Brain % water ([1]; 10 mg/kg p.o. 1×daily 14 days): 78.16 ± 0.09% | Brain K^+ ([1]; 10 mg/kg p.o. 1×daily 14 days): 452.7 ± 12.9 mmol/kg dry weight | Brain Na^+ ([1]; 10 mg/kg p.o. 1×daily 14 days): 198.3 ± 2.74 mmol/kg dry weight | Brain Na^+ /K^+ ([1]; 10 mg/kg p.o. 1×daily 14 days): 0.44 ± 0.04 | Mean body weight, 14 days ([1]; 10 mg/kg p.o. 1×daily 14 days): 318 g | Mean body weight, initial ([1]; 10 mg/kg p.o. 1×daily): 272 g | Brain % water ([1]; 20 mg/kg p.o. 1×daily 14 days): 77.75 ± 0.11% | Brain K^+ ([1]; 20 mg/kg p.o. 1×daily 14 days): 400.6 mmol/kg dry weight | Brain Na^+ ([1]; 20 mg/kg p.o. 1×daily 14 days): 187.9 ± 10.4 mmol/kg dry weight | Brain Na^+ /K^+ ([1]; 20 mg/kg p.o. 1×daily 14 days): 0.45 ± 0.05 | Mean body weight, 14 days ([1]; 20 mg/kg p.o. 1×daily 14 days): 325 g | Mean body weight, initial ([1]; 20 mg/kg p.o. 1×daily): 288 g | protective effect against decrease in body weight and increase in brain water and Na^+ ([1]; oral, TET 14 days): good protective effect | Mean body weight, 4th day ([2]; 5 mg/kg p.o.): 270 g | Brain % water ([2]; 5 mg/kg p.o., 4th day): 77.93 ± 0.17% | Brain K^+ ([2]; 5 mg/kg p.o., 4th day): 414.5 ± 4.4 mmol/kg dry weight | Brain Na^+ ([2]; 5 mg/kg p.o., 4th day): 187.9 ± 4.0 mmol/kg dry weight | Brain Na^+ /K^+ ([2]; 5 mg/kg p.o., 4th day): 0.45 ± 0.01 | Mean body weight, initial ([2]; 5 mg/kg p.o., initial): 264 g | protection from cerebral oedema and reduction in body weight ([2]; oral): protects the animals from the development of cerebral oedema and prevents the reduction in body weight | Food consumption, final ([3]; 10 mg/kg/day p.o. 6 days): 22.1 g/animal/day | Mean body weight, final ([3]; 10 mg/kg/day p.o. 6 days): 261 g | Water consumption, final ([3]; 10 mg/kg/day p.o. 6 days): 21.9 ml/animal/day | Hotplate reaction time, final ([3]; 10 mg/kg/day p.o. 6 days, 50° C.): 17.9 s | Hotplate reaction time, initial ([3]; 10 mg/kg/day p.o., 50° C., initial): 28.9 s | Food consumption, initial ([3]; 10 mg/kg/day p.o., initial): 24.3 g/animal/day | Mean body weight, initial ([3]; 10 mg/kg/day p.o., initial): 241 g | Water consumption, initial ([3]; 10 mg/kg/day p.o., initial): 35.1 ml/animal/day | protective action against neuropathic signs ([3]; oral, 6 days): good protective action against the neuropathic signs | Body weight after treatment [4, 12]: 242 g | Food consumption after treatment [4, 12]: 17.4 g/animal/day | Hotplate reaction time after treatment [4, 12]: 61.58 s | Water consumption after treatment [4, 12]: 31.4 ml/animal/day | Body weight after intoxication ([4]; 5 mg/kg p.o. group): 236 g | Food consumption after intoxication ([4]; 5 mg/kg p.o. group): 10.4 g/animal/day | Hotplate reaction time after intoxication ([4]; 5 mg/kg p.o. group): 88.1 ± 5.67 s | Water consumption after intoxication ([4]; 5 mg/kg p.o. group): 11.4 ml/animal/day | Body weight after treatment [4, 13]: 232 g | Food consumption after treatment [4, 13]: 18.6 g/animal/day | Hotplate reaction time after treatment [4, 13]: 48.58 ± 18.44 s | Water consumption after treatment [4, 13]: 23.1 ml/animal/day | Body weight after intoxication ([4]; 10 mg/kg p.o. group): 227 g | Food consumption after intoxication ([4]; 10 mg/kg p.o. group): 8.9 g/animal/day | Hotplate reaction time after intoxication ([4]; 10 mg/kg p.o. group): 87.36 ± 7.46 s | Water consumption after intoxication ([4]; 10 mg/kg p.o. group): 12.7 ml/animal/day | regression of pre-existent damage ([4]; overall conclusion): pre-existent damage can be made to regress more quickly | stimulating effect on cholinergic mechanisms of the central nervous system [5]: stimulating effect on the cholinergic mechanisms of the central nervous system | effects on existent neuropathies, neurological and mental functions [6]: favourable effects on existent neuropathies, neurological and mental functions | prevention of neurotoxic signs and of cerebral oedema [7]: prevents the occurrence of neurotoxic signs and of cerebral oedema | fungicidal action [8]: no fungicidal action | fungicidal action [9]: no fungicidal action | bactericidal action [10]: nor any bactericidal action | inflammatory action [11]: no inflammatory action
